Source: ChEMBL document CHEMBL1201862, “PubChem BioAssay data set” (2004)
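Assay format: 96-well plates, 48-hour exposure. Here, GI50 denotes the concentration required for 50% inhibition of growth.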 Calls of active or inactive are those of the source. Rule as the data show it: active = GI50 up to about 1.1 µM and inactive = higher.

Key:
Test in all cases: DTP human tumour cell line panel, 48 h
DLD-1 = tested on: DLD-1
M19-MEL = tested on: M19-MEL
SNB-78 = tested on: SNB-78
KM-20L2 = tested on: KM-20L2
XF498 = tested on: XF498
LXFL 529 = tested on: LXFL 529
DMS-273 = tested on: DMS-273
HOP-18 = tested on: HOP-18
RXF 631 = tested on: RXF 631

Compound | GI50 (DLD-1) | GI50 (M19-MEL) | GI50 (SNB-78) | GI50 (KM-20L2) | GI50 (XF498) | GI50 (LXFL 529) | GI50 (DMS-273) | GI50 (HOP-18) | GI50 (RXF 631)
CCOC(=O)C(C(=O)Cc1ccccc1)c1ccccc1 (stereo unspecified) | > 100 µM (inactive) | > 100 µM (inactive) | > 100 µM (inactive) | > 100 µM (inactive) | > 100 µM (inactive) | > 100 µM (inactive) |  |  | 
O=C1C=C(Nc2cccnc2)c2ccccc2C1=O | 5.11 µM (inactive) |  | 15.5 µM (inactive) | > 43.2 µM (inactive) |  | 11.4 µM (inactive) | 6.81 µM (inactive) | 10.3 µM (inactive) | 
Cc1occ2c1C(=O)CC1C2[C@@H](O)CC2C(C)(C)CCC[C@]12C (stereo partly specified) | > 100 µM (inactive) | > 100 µM (inactive) | > 100 µM (inactive) | > 100 µM (inactive) | > 100 µM (inactive) | > 100 µM (inactive) |  | > 100 µM (inactive) | 
C=CCNC(=S)N1CC(C)C(=O)Nc2ccccc21 (stereo unspecified) |  |  | > 100 µM (inactive) | > 100 µM (inactive) | > 100 µM (inactive) | > 100 µM (inactive) | > 100 µM (inactive) |  | 
Cc1ccc(C2=Nc3ccccc3[S+]([O-])C(c3ccc4c(c3)OCO4)C2)cc1 (stereo unspecified) | 12.3 µM (inactive) | 27 µM (inactive) | 24.7 µM (inactive) | 17.4 µM (inactive) | 16.5 µM (inactive) | > 10 µM (inactive) | 28.6 µM (inactive) | > 100 µM (inactive) | 
CC1(C)C2CCC3(C2)CS(=O)(=O)N2OC231 (stereo unspecified) | 23.7 µM (inactive) | 15.7 µM (inactive) | 25.5 µM (inactive) | 16.3 µM (inactive) |  | 16.7 µM (inactive) | 29.4 µM (inactive) | 17.6 µM (inactive) | 
O=C(CSc1nnc(Cc2ccccc2)o1)Nc1ccc(Cl)cc1Cl | > 100 µM (inactive) | > 100 µM (inactive) | > 100 µM (inactive) | > 100 µM (inactive) |  | > 100 µM (inactive) | > 100 µM (inactive) | > 100 µM (inactive) | 
Nc1nncc2c1c(Br)cn2C1OC(CO)C(O)C1O (stereo unspecified) | 4.82 µM (inactive) | > 100 µM (inactive) | > 66.4 µM (inactive) | 44 µM (inactive) | > 41.7 µM (inactive) | 23.7 µM (inactive) | 7.23 µM (inactive) | > 67.6 µM (inactive) | 2.84 µM (inactive)
CC(=O)c1c(O)c2c([nH]c1=O)CCCC2 | 21.6 µM (inactive) | 21 µM (inactive) | > 100 µM (inactive) | 43.1 µM (inactive) | 64.6 µM (inactive) | > 100 µM (inactive) | 25.6 µM (inactive) | > 100 µM (inactive) | 21.8 µM (inactive)
CN(C)c1n/c(=N/c2ccc3ccccc3c2)ss1 | 15.4 µM (inactive) |  | 42.6 µM (inactive) | 29.6 µM (inactive) |  | 9.1 µM (inactive) | > 10 µM (inactive) | 25.3 µM (inactive) | 
COC(=O)C(Cc1ccccc1)NC(=O)Cn1ccnc1[N+](=O)[O-] (stereo unspecified) |  | 95.3 µM (inactive) |  | > 100 µM (inactive) | > 100 µM (inactive) | > 100 µM (inactive) | > 100 µM (inactive) | 67.8 µM (inactive) | > 100 µM (inactive)
O=C(/C=C\c1ccccc1O)c1ccc(O)cc1O | > 100 µM (inactive) | > 100 µM (inactive) | > 100 µM (inactive) | > 100 µM (inactive) |  | > 100 µM (inactive) | > 100 µM (inactive) | 55.7 µM (inactive) | > 100 µM (inactive)
CCNC(=O)O/N=C1\CCC2[C@@H]3CC=C4C[C@@H](OC5CCCCO5)CC[C@]4(C)C3CC[C@]12C (stereo partly specified) | 4.45 µM (inactive) | 1.76 µM (inactive) | 2.24 µM (inactive) | 2.64 µM (inactive) |  | 1.2 µM (inactive) | 1.52 µM (inactive) | 1.42 µM (inactive) | 2.75 µM (inactive)
COc1cc2cccc(/N=C\c3ccccc3Cl)c2cc1OC | > 100 µM (inactive) | > 100 µM (inactive) | > 100 µM (inactive) | > 100 µM (inactive) |  | > 100 µM (inactive) |  | > 100 µM (inactive) | 
COc1ccc(C(c2ccccc2C(=O)O)c2ccc(OC)c3ccccc23)c2ccccc12 | 7.31 µM (inactive) | 12.5 µM (inactive) | 20.9 µM (inactive) | 9.25 µM (inactive) | 20.9 µM (inactive) | 6.35 µM (inactive) | 14 µM (inactive) | 3.39 µM (inactive) | 
O=C(CCCCCCCCC(=O)OCC1OC(n2cnc3c(=O)[nH]cnc32)C(O)C1O)OCC1OC(n2cnc3c(=O)[nH]cnc32)C(O)C1O (stereo unspecified) | > 100 µM (inactive) | > 100 µM (inactive) | > 100 µM (inactive) | > 100 µM (inactive) | > 100 µM (inactive) |  | > 100 µM (inactive) | > 100 µM (inactive) | 
O=C(Cc1ccccc1)N/N=C(/c1nc2ccc([N+](=O)[O-])cc2nc1O)C(O)c1ccc(C(O)/C(=N/NC(=O)Cc2ccccc2)c2nc3ccc([N+](=O)[O-])cc3nc2O)cc1 (stereo unspecified) | 56.8 µM (inactive) | 58.9 µM (inactive) |  | 12.4 µM (inactive) | 29.8 µM (inactive) | 24.7 µM (inactive) |  |  | 51.3 µM (inactive)
N#Cc1nc(C2OC(COC(=O)c3ccccc3)C(OC(=O)c3ccccc3)C2OC(=O)c2ccccc2)oc1N (stereo unspecified) | 37.2 µM (inactive) | 36.7 µM (inactive) | 22 µM (inactive) | 39 µM (inactive) |  |  | 26.4 µM (inactive) | 10.7 µM (inactive) | 
COCCCNC(=O)CC(=O)NCCCOC | > 100 µM (inactive) | > 100 µM (inactive) | > 100 µM (inactive) | > 100 µM (inactive) |  | > 100 µM (inactive) |  | > 100 µM (inactive) | > 100 µM (inactive)
Cc1ccc([N+](=O)[O-])cc1NC(=O)/C(CC(=O)c1sc(C(N)=S)nc1C)=N\N | > 100 µM (inactive) | 71.8 µM (inactive) | > 100 µM (inactive) | > 100 µM (inactive) |  | 41.7 µM (inactive) | 29.7 µM (inactive) | 71.3 µM (inactive) | 31.5 µM (inactive)
CCN(CC)c1cccc2c1C1(O)CCC3(CC21)OCCCCO3 (stereo unspecified) | 57.1 µM (inactive) | 91.4 µM (inactive) | > 100 µM (inactive) | 68.4 µM (inactive) |  | > 100 µM (inactive) | > 100 µM (inactive) | > 100 µM (inactive) | 
N#CC1(C2CC(=O)N(c3ccccc3)C2=O)CCCCC1=O (stereo unspecified) | > 100 µM (inactive) | > 100 µM (inactive) | > 100 µM (inactive) |  | 9.2 µM (inactive) | > 100 µM (inactive) | > 100 µM (inactive) | > 100 µM (inactive) | > 100 µM (inactive)
COc1cc(C(=O)NO)ccc1O | > 100 µM (inactive) | > 100 µM (inactive) | > 100 µM (inactive) | > 100 µM (inactive) |  | > 100 µM (inactive) | > 100 µM (inactive) | > 100 µM (inactive) | 
Cc1c(-c2ccccc2)c(=O)oc2ccc(Cl)cc12 | > 100 µM (inactive) | > 100 µM (inactive) | 26 µM (inactive) |  |  | > 100 µM (inactive) | 87.1 µM (inactive) | > 100 µM (inactive) | 
CC(=O)c1ccc(NC(=O)C(=O)Nn2c(S)nc3ccccc3c2=O)cc1 | > 100 µM (inactive) | > 100 µM (inactive) | > 100 µM (inactive) | > 100 µM (inactive) | > 100 µM (inactive) | > 100 µM (inactive) |  | > 100 µM (inactive) | 
CC(=O)c1cccc(NC(=O)/C(=N\NC(C)(C)C)c2c(O)c3ccccc3oc2=O)c1 | > 100 µM (inactive) | 84.7 µM (inactive) |  | > 100 µM (inactive) | > 100 µM (inactive) | > 100 µM (inactive) | > 100 µM (inactive) | > 100 µM (inactive) | 
N#CCc1ccc(C(C#N)/C(CCCC(=O)Nc2cccc([N+](=O)[O-])c2)=N\NC(=O)NN)cc1 (stereo unspecified) | > 100 µM (inactive) | > 100 µM (inactive) | > 100 µM (inactive) | > 100 µM (inactive) |  | > 100 µM (inactive) | > 100 µM (inactive) | > 100 µM (inactive) | 
CCCCCC[C@@H]1CCC2C(CO)[C@@H](O)CC[C@@H]2C1 (stereo partly specified) | 18.8 µM (inactive) | 18.2 µM (inactive) | 19.2 µM (inactive) | 18.4 µM (inactive) | 24.7 µM (inactive) | 18.5 µM (inactive) | 20.2 µM (inactive) | 22.4 µM (inactive) | 
COCC(C#N)NC1CC(OC2CC(O)(C(=O)CO)Cc3c(O)c4c(c(O)c32)C(=O)c2c(OC)cccc2C4=O)OC(C)C1O (stereo unspecified) | 0.2 µM (active) | 0.0528 µM (active) | 0.235 µM (active) | 0.191 µM (active) | 0.0427 µM (active) | 0.083 µM (active) | 0.0266 µM (active) | 0.125 µM (active) | 0.0716 µM (active)
C=C[C@]1(C)CCC2=C(CCC3C2(C)CCC[C@]3(C)CO)C1 (stereo partly specified) | 50 µM (inactive) | 43.5 µM (inactive) | 79.4 µM (inactive) | 20.2 µM (inactive) | 52.6 µM (inactive) | 56.1 µM (inactive) | 41.8 µM (inactive) | > 100 µM (inactive) | 51.1 µM (inactive)
